# Data published in patent US20230040182A1, “ARYL HETEROBICYCLIC COMPOUNDS AS Kv1.3 POTASSIUM SHAKER CHANNEL BLOCKERS” (priority 2019, published 2023).
# Biological target: T1, Kv1.3 potassium channel (Homo sapiens, UniProt P22001)
# T1 construct: expressed in transfected cells
# Assay: Kv1.3 potassium channel blocker activity, automated whole-cell patch clamp (Patchliner)
# Assay type: cell-based
# Settings: CHO-K1 cells stably expressing Kv1.3; whole-cell current, Hill fit
# Protocol: Example 9. Evaluation of Kv1.3 Potassium Channel Blocker Activities
# This assay is used to evaluate the disclosed compounds' activities as Kv1.3 potassium channel blockers.
# CHO-K1 cells stably expressing Kv1.3 were grown in DMEM containing 10% heat-inactivated FBS, 1 mM Sodium Pyruvate, 2 mM L-Glutamine and G418 (500 μg/ml). Cells were grown in culture flasks at 37° C. in a […] incubator.
# The cells were bathed in an extracellular solution containing 140 mM NaCl, 4 mM KCl, 2 mM CaCl2, 1 mM MgCl2, 5 mM Glucose, 10 mM HEPES; pH adjusted to 7.4 with NaOH; 295-305 mOsm. The internal solution contained 50 mM KCl, 10 mM NaCl, 60 mM KF, 20 mM EGTA, 10 mM HEPES; pH adjusted to 7.2 with KOH; 285 mOsm. All compounds were dissolved in DMSO at 30 mM. Compound stock solutions were freshly diluted with external solution to concentrations of 30 nM, 100 nM, 300 nM, 1 μM, 3 μM, 10 μM, 30 μM and 100 μM. The highest content of DMSO (0.3%) was present in 100 μM.
# The currents were evoked by applying 100 ms depolarizing pulses from −90 mV (holding potential) to +40 mV were applied with 0.1 Hz frequency. Control (compound-free) and compound pulse trains for each compound concentration applied contained 20 pulses. 10-second breaks were used between pulse trains (see Table A below).
# Whole-cell current recordings and compound application were enabled by means of an automated patch clamp platform Patchliner (Nanion Technologies GmbH). EPC 10 patch clamp amplifier (HEKA Elektronik Dr. Schulze GmbH) along with Patchmaster software (HEKA Elektronik Dr. Schulze GmbH) was used for data acquisition. Data were sampled at 10 kHz without filtering. Passive leak currents were subtracted online using a P/4 procedure (HEKA Elektronik Dr. Schulze GmbH). Increasing compound concentrations were applied consecutively to the same cell without washouts in between. Total compound incubation time before the next pulse train was not longer than 10 seconds. Peak current inhibition was observed during compound equilibration.
# AUC and peak values were obtained with Patchmaster (HEKA Elektronik Dr. Schulze GmbH). To determine IC50, the last single pulse in the pulse train corresponding to a given compound concentration was used. Obtained AUC and peak values in the presence of compound were normalized to control values in the absence of compound. Using Origin (OridinLab), IC50 was derived from data fit to Hill equation: Icompound/Icontrol=(100−A)/(1+([compound]/IC50)nH)+A, where IC50 value is the concentration at which current inhibition is half-maximal, [compound] is the applied compound concentration, A is the fraction of current that is not blocked and nH is the Hill coefficient.
# T1 sequence (P22001 whole entry): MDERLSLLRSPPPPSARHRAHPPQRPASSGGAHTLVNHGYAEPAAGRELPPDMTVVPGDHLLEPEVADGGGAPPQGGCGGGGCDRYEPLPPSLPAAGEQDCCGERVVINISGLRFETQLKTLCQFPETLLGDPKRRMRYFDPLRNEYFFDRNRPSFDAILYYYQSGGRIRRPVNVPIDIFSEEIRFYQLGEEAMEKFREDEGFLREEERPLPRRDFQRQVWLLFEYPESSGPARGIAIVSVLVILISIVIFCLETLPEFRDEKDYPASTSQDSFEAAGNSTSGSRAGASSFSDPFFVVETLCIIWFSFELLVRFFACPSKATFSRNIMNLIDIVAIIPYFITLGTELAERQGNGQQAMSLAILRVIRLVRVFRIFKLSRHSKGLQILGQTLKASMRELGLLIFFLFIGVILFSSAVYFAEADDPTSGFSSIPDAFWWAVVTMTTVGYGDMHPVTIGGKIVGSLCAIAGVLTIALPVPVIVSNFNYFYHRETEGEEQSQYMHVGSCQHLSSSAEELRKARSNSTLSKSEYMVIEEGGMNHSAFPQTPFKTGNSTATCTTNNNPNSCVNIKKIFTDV
row,IC50 [µM],Structure (SMILES)
1,< 10,"C[C@H]1NC(=O)[C@H]2C[C@@H](c3c(O)ccc(Cl)c3Cl)CCN2C1=O [Compound 62, (3R,8S,9aR)-8-(2,3-dichloro-6-hydroxyphenyl)-3-methyl-hexahydro-2H-pyrido[1,2-a]pyrazine-1,4-dione]"
2,< 10,"O=C1NNC(=O)N2CC[C@H](c3c(O)ccc(Cl)c3Cl)C[C@H]12 [Compound 15, (8S,9aR)-8-(2,3-dichloro-6-hydroxyphenyl)hexahydro-4H-pyrido[1,2-d][1,2,4]triazine-1,4(6H)-dione]"
3,< 1,"O=C1[C@@H]2C[C@H](c3c(O)ccc(Cl)c3Cl)CCN2C(=O)[C@H]2CC(O)CCN12 (stereo partly drawn) [Compound 40, (2R,6aR,12aS)-2-(2,3-dichloro-6-hydroxyphenyl)-8-hydroxyoctahydro-dipyrido[1,2-a:1′,2′-d]pyrazine-6,12(2H,6aH)-dione]"
4,< 10,"O=C1[C@@H]2C[C@H](O)CN2C(=O)[C@H]2C[C@@H](c3c(O)ccc(Cl)c3Cl)CCN12 (single isomer, unassigned; isomer 3) [Compound 45, 7-(2,3-dichloro-6-hydroxyphenyl)-2-hydroxyhexahydro-1H-pyrido[1,2-a]pyrrolo[1,2-d]pyrazine-5,11(5aH,11aH)-dione isomer 3]"
5,< 10,"O=C1NCC(=O)N2CC[C@H](c3c(O)ccc(Cl)c3Cl)C[C@H]12 [Compound 56, (8S,9aR)-8-(2,3-dichloro-6-hydroxyphenyl)hexahydro-4H-pyrido[1,2-a]pyrazine-1,4(6H)-dione]"
6,< 10,"O=C1[C@H]2C[C@@H](c3c(O)ccc(Cl)c3Cl)CCN2C(=O)CN1CCO [Compound 37, (8S,9aR)-8-(2,3-dichloro-6-hydroxyphenyl)-2-(2-hydroxyethyl)-hexahydropyrido[1,2-a]pyrazine-1,4-dione]"
7,< 10,"O=C1N[C@H](CO)C(=O)N2CC[C@H](c3c(O)ccc(Cl)c3Cl)C[C@H]12 [Compound 57, (3R,8S,9aR)-8-(2,3-dichloro-6-hydroxyphenyl)-3-(hydroxymethyl)hexahydro-4H-pyrido[1,2-a]pyrazine-1,4(6H)-dione]"
8,< 10,"O=C1[C@@H]2C[C@H](c3c(O)ccc(Cl)c3Cl)CCN2C(=O)[C@@H]2[C@H](O)CCN12 (single isomer, unassigned; isomer 1) [Compound 29, 7-(2,3-dichloro-6-hydroxyphenyl)-1-hydroxyhexahydro-1H-pyrido[1,2-a]pyrrolo[1,2-d]pyrazine-5,11(5aH,11aH)-dione isomer 1]"
9,< 1,"O=C1N[C@H](CO)C(=O)N2CC(c3c(O)ccc(Cl)c3Cl)CC12 (stereo partly drawn) [Compound 31, (3R)-7-(2,3-dichloro-6-hydroxyphenyl)-3-(hydroxymethyl)hexahydro-pyrrolo[1,2-a]pyrazine-1,4-dione]"
10,< 10,"O=C1[C@@H]2C[C@@H](O)CN2C(=O)[C@@H]2C[C@H](c3c(O)ccc(Cl)c3Cl)CCN12 [Compound 43, (2R,5aS,7R,11aS)-7-(2,3-dichloro-6-hydroxyphenyl)-2-hydroxyhexahydro-1H-pyrido[1,2-a]pyrrolo[1,2-d]pyrazine-5,11(5aH,11aH)-dione]"
11,< 1,"CC(C)[C@H]1NC(=O)[C@@H]2C[C@H](c3c(O)ccc(Cl)c3Cl)CCN2C1=O [Compound 54, (8R,9aS)-8-(2,3-dichloro-6-hydroxyphenyl)-3-(3R)-isopropyl-hexahydro-2H-pyrido[1,2-a]pyrazine-1,4-dione]"
12,< 10,"C[C@H](O)[C@H]1NC(=O)[C@H]2C[C@@H](c3c(O)ccc(Cl)c3Cl)CCN2C1=O [Compound 67, (3R,8S,9aR)-8-(2,3-dichloro-6-hydroxyphenyl)-3-[(1S)-1-hydroxyethyl]-hexahydro-2H-pyrido[1,2-a]pyrazine-1,4-dione]"
13,< 1,"Cc1ccc(O)c([C@@H]2CCN3C(=O)[C@@H](CO)NC(=O)[C@@H]3C2)c1Cl (relative stereo) [Compound 28, (8R,9aS)-rel-8-(2-chloro-6-hydroxy-3-methylphenyl)-3-((3R)-hydroxymethyl)-hexahydro-2H-pyrido[1,2-a]pyrazine-1,4-dione]"
